From ChEMBL document CHEMBL1201861, “Genomics of Drug Sensitity in Cancer screening data, Wellcome Trust Sanger Institute”
Several values for one entry are separate records, joined by “and”; a condition that tells them apart may be missing. Equal entries are not always repeated.

Assays:
Test in all cases: cells
COR-L105 = assay type: functional, cell-based, Homo sapiens;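 note: cell growth inhibition determined with a viability assay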
Description: SANGER: Inhibition of human COR-L105 cell growth in a cell viability assay.

D-392MG = assay type: functional, cell-based, Homo sapiens
DU-4475 = assay type: functional, cell-based; details: Homo sapiens
Description: SANGER: Inhibition of human DU-4475 cell growth in a cell viability assay.

EKVX = assay type: functional, cell-based, Homo sapiens;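 note: growth inhibition of human EKVX cells, read out with a cell viability assay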
Description: SANGER: Inhibition of human EKVX cell growth in a cell viability assay.

ES7 = assay type: functional, cell-based, Homo sapiens;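 note: growth inhibition of cultured human ES7 cells, read out as cell viability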
Description: SANGER: Inhibition of human ES7 cell growth in a cell viability assay.

EW-13 = assay type: functional, cell-based; details: Homo sapiens;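 note: growth inhibition of EW-13 cells, read out with a cell viability assay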
Description: SANGER: Inhibition of human EW-13 cell growth in a cell viability assay.

EW-24 = assay type: functional, cell-based; details: Homo sapiens;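 note: human EW-24 cancer cell line, growth inhibition read out via a cell viability assay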
Description: SANGER: Inhibition of human EW-24 cell growth in a cell viability assay.

GCT = assay type: functional, cell-based, Homo sapiens;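 note: GCT cell line proliferation inhibition, read out with a cell viability assay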
Description: SANGER: Inhibition of human GCT cell growth in a cell viability assay.

GR-ST = assay type: functional, cell-based; details: Homo sapiens
Description: SANGER: Inhibition of human GR-ST cell growth in a cell viability assay.

HLE = assay type: functional, cell-based, Homo sapiens;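 note: growth inhibition of human HLE cells, read out by a cell viability assay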
Description: SANGER: Inhibition of human HLE cell growth in a cell viability assay.

HPAF-II = assay type: functional, cell-based, Homo sapiens;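 note: growth inhibition of HPAF-II cells, read out with a cell viability assay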
Description: SANGER: Inhibition of human HPAF-II cell growth in a cell viability assay.

HT = assay type: functional, cell-based; details: Homo sapiens
Description: SANGER: Inhibition of human HT cell growth in a cell viability assay.

Huh-7 = assay type: functional, cell-based, Homo sapiens;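 note: HuH-7 cell growth inhibition, read out with a cell viability assay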
Description: SANGER: Inhibition of human HuH-7 cell growth in a cell viability assay.

J-RT3-T3-5 = assay type: functional, cell-based; details: Homo sapiens;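 note: cell viability assay measuring growth inhibition of human J-RT3-T3-5 cells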
Description: SANGER: Inhibition of human J-RT3-T3-5 cell growth in a cell viability assay.

KARPAS-45 = assay type: functional, cell-based; details: Homo sapiens;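 note: inhibition of cell line growth, read out through a viability assay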
Description: SANGER: Inhibition of human KARPAS-45 cell growth in a cell viability assay.

KLE = assay type: functional, cell-based, Homo sapiens;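 note: growth inhibition of human KLE cells, read out with a cell viability assay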
Description: SANGER: Inhibition of human KLE cell growth in a cell viability assay.

KNS-42 = assay type: functional, cell-based, Homo sapiens;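 note: growth inhibition of KNS-42 cells, read out with a cell viability assay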
Description: SANGER: Inhibition of human KNS-42 cell growth in a cell viability assay.

KYSE-150 cell line = assay type: functional, cell-based, Homo sapiens;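 note: growth inhibition of human KYSE-150 cells, read out with a cell viability assay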
Description: SANGER: Inhibition of human KYSE-150 cell growth in a cell viability assay.

KYSE-520 cell line = assay type: functional, cell-based, Homo sapiens;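 note: growth inhibition of human KYSE-520 cells, read out with a viability assay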
Description: SANGER: Inhibition of human KYSE-520 cell growth in a cell viability assay.

LC-2-ad = assay type: functional, cell-based, Homo sapiens;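 note: growth inhibition of human LC-2-ad cells, read out with a cell viability assay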
Description: SANGER: Inhibition of human LC-2-ad cell growth in a cell viability assay.

LU-139 = assay type: functional, cell-based; details: Homo sapiens
Description: SANGER: Inhibition of human LU-139 cell growth in a cell viability assay.

MEG-01 = assay type: functional, cell-based; details: Homo sapiens;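 note: growth inhibition of MEG-01 cells, read out by a cell viability assay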
Description: SANGER: Inhibition of human MEG-01 cell growth in a cell viability assay.

MKN-28 = assay type: functional, cell-based, Homo sapiens;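 note: cell viability assay read-out, IC50 reflects suppression of growth of human MKN-28 cells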
Description: SANGER: Inhibition of human MKN28 cell growth in a cell viability assay.

MZ1-PC = assay type: functional, cell-based, Homo sapiens;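 note: cell viability assay measuring growth inhibition of human MZ1-PC cells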
Description: SANGER: Inhibition of human MZ1-PC cell growth in a cell viability assay.

MZ2-MEL = assay type: functional, cell-based, Homo sapiens;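 note: growth inhibition of MZ2-MEL cells read out with a cell viability assay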
Description: SANGER: Inhibition of human MZ2-MEL cell growth in a cell viability assay.

NCI-H1581 = assay type: functional, cell-based, Homo sapiens;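 note: cell growth inhibition read out by a viability assay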
Description: SANGER: Inhibition of human NCI-H1581 cell growth in a cell viability assay.

NCI-H1792 = assay type: functional, cell-based, Homo sapiens;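 note: growth inhibition of human NCI-H1792 cells, read out as cell viability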
Description: SANGER: Inhibition of human NCI-H1792 cell growth in a cell viability assay.

NCI-H2228 = assay type: functional, cell-based, Homo sapiens;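 note: growth inhibition of human NCI-H2228 cells, read out by a cell viability assay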
Description: SANGER: Inhibition of human NCI-H2228 cell growth in a cell viability assay.

OVCAR-4 = assay type: functional, cell-based, Homo sapiens;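 note: growth inhibition of human OVCAR-4 cells, measured with a cell viability assay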
Description: SANGER: Inhibition of human OVCAR-4 cell growth in a cell viability assay.

RCM-1 = assay type: functional, cell-based, Homo sapiens;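 note: growth inhibition of the RCM-1 line, determined with a cell viability readout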
Description: SANGER: Inhibition of human RCM-1 cell growth in a cell viability assay.

RPMI-2650 = assay type: functional, cell-based, Homo sapiens
Description: SANGER: Inhibition of human RPMI-2650 cell growth in a cell viability assay.

RS4-11 = assay type: functional, cell-based; details: Homo sapiens;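 note: growth inhibition of RS4-11 cells, read out by a cell viability assay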
Description: SANGER: Inhibition of human RS4-11 cell growth in a cell viability assay.

SCH = assay type: functional, cell-based, Homo sapiens;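 note: growth inhibition of human SCH cells, read out in a cell viability assay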
Description: SANGER: Inhibition of human SCH cell growth in a cell viability assay.

SF-126 = assay type: functional, cell-based, Homo sapiens;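 note: growth inhibition of human SF126 cells, read out with a cell viability assay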
Description: SANGER: Inhibition of human SF126 cell growth in a cell viability assay.

SH-4 = assay type: functional, cell-based, Homo sapiens;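 note: growth inhibition of SH-4 cells, read out with a cell viability assay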
Description: SANGER: Inhibition of human SH-4 cell growth in a cell viability assay.

SHP77 = assay type: functional, cell-based, Homo sapiens, SHP-77;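 note: growth inhibition of human SHP-77 cells measured by a cell viability assay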
Description: SANGER: Inhibition of human SHP-77 cell growth in a cell viability assay.

SJSA-1 = assay type: functional, cell-based, Homo sapiens;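 note: growth inhibition of human SJSA-1 cells, read out through a cell viability measurement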
Description: SANGER: Inhibition of human SJSA-1 cell growth in a cell viability assay.

SK-MEL-28 = assay type: functional, cell-based; details: Homo sapiens;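 note: growth inhibition of human SK-MEL-28 cells, read out with a cell viability assay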
Description: SANGER: Inhibition of human SK-MEL-28 cell growth in a cell viability assay.

SK-UT-1 = assay type: functional, cell-based, Homo sapiens;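 note: growth inhibition of SK-UT-1 cells, measured by a cell viability assay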
Description: SANGER: Inhibition of human SK-UT-1 cell growth in a cell viability assay.

SW13 = assay type: functional, cell-based, Homo sapiens;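 note: IC50 is inhibition of SW13 cell growth, read out with a cell viability assay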
Description: SANGER: Inhibition of human SW13 cell growth in a cell viability assay.

SW-620 = assay type: functional, cell-based, Homo sapiens;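 note: growth inhibition of human SW-620 cells, measured by a cell viability assay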
Description: SANGER: Inhibition of human SW620 cell growth in a cell viability assay.

SW626 = assay type: functional, cell-based, Homo sapiens;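 note: growth inhibition of SW626 cells, measured with a cell viability assay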
Description: SANGER: Inhibition of human SW626 cell growth in a cell viability assay.

SW756 = assay type: functional, cell-based, Homo sapiens;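 note: growth inhibition of human SW756 cells, read out with a cell viability assay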
Description: SANGER: Inhibition of human SW756 cell growth in a cell viability assay.

SW 962 = assay type: functional, cell-based, Homo sapiens;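 note: growth inhibition of human SW962 cells, read out by a cell viability assay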
Description: SANGER: Inhibition of human SW962 cell growth in a cell viability assay.

A-431 = assay type: functional, cell-based, Homo sapiens;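 note: growth inhibition of A-431 cells, determined with a cell viability read-out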
Description: SANGER: Inhibition of human A431 cell growth in a cell viability assay.

ABC-1 = assay type: functional, cell-based, Homo sapiens;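 note: growth inhibition of human ABC-1 cells, read out by a cell viability assay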
Description: SANGER: Inhibition of human ABC-1 cell growth in a cell viability assay.

AGS = assay type: functional, cell-based, Homo sapiens;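 note: growth inhibition of AGS cells, determined with a cell viability assay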
Description: SANGER: Inhibition of human AGS cell growth in a cell viability assay.

ATN-1 = assay type: functional, cell-based; details: Homo sapiens;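 note: growth inhibition of human ATN-1 cells, read out with a cell viability assay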
Description: SANGER: Inhibition of human ATN-1 cell growth in a cell viability assay.

C-33-A = assay type: functional, cell-based, Homo sapiens;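 note: cell viability assay measuring growth inhibition of C-33-A cells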
Description: SANGER: Inhibition of human C-33-A cell growth in a cell viability assay.

CAL-12T = assay type: functional, cell-based, Homo sapiens;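 note: growth inhibition of human CAL-12T cells, read out with a cell viability assay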
Description: SANGER: Inhibition of human CAL-12T cell growth in a cell viability assay.

TE-12 = assay type: functional, cell-based; details: Homo sapiens;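 note: growth inhibition of TE-12 cells, read out by a cell viability assay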
Description: SANGER: Inhibition of human TE-12 cell growth in a cell viability assay.

COLO-320-HSR = assay type: functional, cell-based; details: Homo sapiens;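 note: growth inhibition of COLO-320-HSR cells, determined with a cell viability assay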
Description: SANGER: Inhibition of human COLO-320-HSR cell growth in a cell viability assay.

COc1cc([C@@H]2c3cc4c(cc3[C@@H](O[C@@H]3O[C@@H]5CO[C@@H](C)O[C@H]5[C@H](O)[C@H]3O)[C@H]3COC(=O)[C@H]23)OCO4)cc(OC)c1O [ETOPOSIDE]
IC50 (COR-L105; Homo sapiens, COR-L105): 9.57 µM | IC50 (D-392MG; Homo sapiens, D-392MG): > 16 µM | IC50 (DU-4475): 0.0962 µM | IC50 (EKVX; Homo sapiens, EKVX): > 16 µM | IC50 (ES7; Homo sapiens, ES7): 0.767 µM | IC50 (EW-13): 0.0889 µM | IC50 (EW-24): > 16 µM | IC50 (GCT; Homo sapiens, GCT): 3.27 µM | IC50 (GR-ST): 6.69 µM | IC50 (HLE; Homo sapiens, HLE): 0.534 µM | IC50 (HPAF-II; Homo sapiens, HPAF-II): > 16 µM | IC50 (HT): 15.3 µM | IC50 (Huh-7; Homo sapiens, Huh-7): 2.56 µM | IC50 (J-RT3-T3-5): 1.59 µM | IC50 (KARPAS-45): > 16 µM | IC50 (KLE; Homo sapiens, KLE): 10.3 µM | IC50 (KNS-42; Homo sapiens, KNS-42): 13.7 µM | IC50 (KYSE-150 cell line; Homo sapiens, KYSE-150): 0.53 µM | IC50 (KYSE-520 cell line; Homo sapiens, KYSE-520): > 16 µM | IC50 (LC-2-ad; Homo sapiens, LC-2-ad): 2.06 µM | IC50 (LU-139): 4.01 µM | IC50 (MEG-01): 4.75 µM | IC50 (MKN-28; Homo sapiens, MKN-28): 2.55 µM | IC50 (MZ1-PC; Homo sapiens, MZ1-PC): 0.811 µM | IC50 (MZ2-MEL; Homo sapiens, MZ2-MEL): 2.18 µM | IC50 (NCI-H1581; Homo sapiens, NCI-H1581): > 16 µM | IC50 (NCI-H1792; Homo sapiens, NCI-H1792): > 16 µM | IC50 (NCI-H2228; Homo sapiens, NCI-H2228): 2.66 µM | IC50 (OVCAR-4; Homo sapiens, OVCAR-4): > 16 µM | IC50 (RCM-1; Homo sapiens, RCM-1): > 16 µM | IC50 (RPMI-2650; Homo sapiens, RPMI-2650): 0.572 µM | IC50 (RS4-11): 0.196 µM | IC50 (SCH; Homo sapiens, SCH): > 16 µM | IC50 (SF-126; Homo sapiens, SF-126): 1.44 µM | IC50 (SH-4; Homo sapiens, SH-4): 3.13 µM | IC50 (SHP77; Homo sapiens, SHP77): > 16 µM | IC50 (SJSA-1; Homo sapiens, SJSA-1): 2.98 µM | IC50 (SK-MEL-28): > 16 µM | IC50 (SK-UT-1; Homo sapiens, SK-UT-1): 0.0424 µM | IC50 (SW13; Homo sapiens, SW13): 1.8 µM | IC50 (SW-620; Homo sapiens, SW-620): 0.384 µM | IC50 (SW626; Homo sapiens, SW626): 8.9 µM | IC50 (SW756; Homo sapiens, SW756): 2.98 µM | IC50 (SW 962; Homo sapiens, SW 962): > 16 µM | IC50 (A-431; Homo sapiens, A-431): 0.798 µM | IC50 (ABC-1; Homo sapiens, ABC-1): 0.405 µM | IC50 (AGS; Homo sapiens, AGS): 0.318 µM | IC50 (ATN-1): 0.204 µM | IC50 (C-33-A; Homo sapiens, C-33-A): 0.862 µM | IC50 (CAL-12T; Homo sapiens, CAL-12T): 11.1 µM | IC50 (TE-12): > 16 µM | IC50 (COLO-320-HSR): 9.73 µM

Cc1cc([C@@H](C)Nc2ccccc2C(=O)O)c2nc(N3CCOCC3)cc(=O)n2c1 [AZD-6482]
IC50 (COR-L105; cor-l105): > 5.12 µM | IC50 (D-392MG; d-392mg): > 5.12 µM | IC50 (DU-4475): > 5.12 µM | IC50 (EKVX; ekvx): > 5.12 µM | IC50 (ES7; es7): 0.813 µM and 3.26 µM | IC50 (EW-13): > 5.12 µM | IC50 (EW-24): > 5.12 µM | IC50 (GCT; gct): > 5.12 µM | IC50 (GR-ST): > 5.12 µM | IC50 (HLE; hle): > 5.12 µM | IC50 (HPAF-II; hpaf-ii): > 5.12 µM | IC50 (HT): 4.02 µM | IC50 (Huh-7; Homo sapiens, Huh-7): > 5.12 µM | IC50 (Huh-7; huh-7): > 5.12 µM | IC50 (J-RT3-T3-5): > 5.12 µM | IC50 (KARPAS-45): 3.3 µM | IC50 (KLE; kle): > 5.12 µM | IC50 (KNS-42; kns-42): > 5.12 µM | IC50 (KYSE-150 cell line; kyse-150): > 5.12 µM | IC50 (KYSE-520 cell line; Homo sapiens, KYSE-520): > 5.12 µM | IC50 (KYSE-520 cell line; kyse-520): > 5.12 µM | IC50 (LC-2-ad; lc-2-ad): > 5.12 µM | IC50 (LU-139): > 5.12 µM | IC50 (MEG-01): > 5.12 µM | IC50 (MKN-28; mkn-28): > 5.12 µM | IC50 (MZ1-PC; mz1-pc): > 5.12 µM | IC50 (MZ2-MEL; mz2-mel): > 5.12 µM | IC50 (NCI-H1581; nci-h1581): > 5.12 µM | IC50 (NCI-H1792; nci-h1792): > 5.12 µM | IC50 (NCI-H2228; nci-h2228): > 5.12 µM | IC50 (OVCAR-4; ovcar-4): > 5.12 µM | IC50 (RCM-1; rcm-1): > 5.12 µM | IC50 (RPMI-2650; Homo sapiens, RPMI-2650): > 5.12 µM | IC50 (RPMI-2650; rpmi-2650): > 5.12 µM | IC50 (RS4-11): 0.738 µM | IC50 (SCH; sch): > 5.12 µM | IC50 (SF-126; sf-126): 4.46 µM and > 5.12 µM | IC50 (SH-4; sh-4): > 5.12 µM | IC50 (SHP77; shp-77): > 5.12 µM | IC50 (SJSA-1; Homo sapiens, SJSA-1): > 5.12 µM | IC50 (SJSA-1; sjsa-1): > 5.12 µM | IC50 (SK-MEL-28): > 5.12 µM | IC50 (SK-UT-1; sk-ut-1): 2.45 µM and > 5.12 µM | IC50 (SW13; Homo sapiens, SW13): > 5.12 µM | IC50 (SW13; sw13): > 5.12 µM | IC50 (SW-620; sw-620): > 5.12 µM | IC50 (SW626; sw626): > 5.12 µM | IC50 (SW756; Homo sapiens, SW756): > 5.12 µM | IC50 (SW756; sw756): > 5.12 µM | IC50 (SW 962; sw 962): > 5.12 µM and 1.5 µM | IC50 (A-431; a-431): > 5.12 µM | IC50 (ABC-1; abc-1): > 5.12 µM | IC50 (AGS; Homo sapiens, AGS): > 5.12 µM | IC50 (AGS; ags): > 5.12 µM | IC50 (ATN-1): > 5.12 µM | IC50 (C-33-A; c-33-a): > 5.12 µM | IC50 (CAL-12T; cal-12t): > 5.12 µM | IC50 (TE-12): > 5.12 µM | IC50 (COLO-320-HSR): > 5.12 µM
